# Data: US11801256B2, “Antidepressant-psilocybin co-treatment to assist psychotherapy” (Universitätsspital Basel, priority 2021, dated 2023)
# Columns and labels:
# [1] = Plasma drug concentrations and pharmacokinetic analyses; assay type: in vivo, human; details: for elimination half-life / mean time to peak concentrations: psilocin glucuronide after 25 mg psilocybin
# Experimental: The blood samples were immediately centrifuged, and the plasma was subsequently stored at −80° C. until analysis.
# This allows to determine the concentrations of unconjugated psilocin and of psilocin glucuronide which corresponds to the difference between samples that were incubated with and without glucuronidase.
# [2] = tested on: healthy subjects; experiment: Subjective effects, visual analog scales (VAS), clinical study; assay type: in vivo, human; details: 25 mg psilocybin
# Experimental: (§1) Treatment order was random and counterbalanced.
# Study procedures: Subjects took part in a 2-hour screening session, two 9.5-hour test sessions where the psilocybin was administered and a 1-hour end-of-study visit. The subjects were informed about the study both verbally and by the approved written consent form regarding the altered state of consciousness, the study procedures and associated risks. The investigator and the subject both personally signed and dated the consent form as confirmation of consent. Subjects were screened using a semi-structured clinical interview for DSM-IV (Diagnostic and Statistical Manual Version 4) (Wittchen et al., 1997) to exclude those with a personal or family (first-degree relative) axis I major psychiatric disorder (acute or past) or a history of illicit drug dependence. Axis I major psychiatric disorders included also addiction disorders. The sessions were conducted in a calm standard hospital room. Only one research subject and one investigator were present during the test sessions. The test sessions began at 9 AM. The subjects then underwent baseline measurements. […] Psilocybin was administered at 11:00 AM. The outcome measures were repeatedly assessed for 7 hours. The subjects were under constant supervision by an investigator until 6 PM. Thus, the subjects were never alone during the 7 hours after drug administration. The subjects were sent home at 6:30 PM.
# Subjective Effects Questionnaire (Visual Analog Scales, VAS): VAS was repeatedly used to assess subjective alterations in consciousness over time. Single scales were presented as 100 mm horizontal lines marked with “not at all” on the left and “extremely” on the right. The following VAS items were used: “any drug effect”, “good drug effect”, “bad drug effect”, “drug liking”, “drug high”, “stimulated”, “fear”, “happy”, “content”, “trust”, “talkative”, “perception of time”, “open”, “concentration”, “speed of thinking”, “feeling close to others”, “wanting to be hugged”, “wanting to hug someone”, “desire to be alone”, “desire to be with others”, and “ego dissolution”. The VASs were presented as 100-mm horizontal lines (0-100%), marked from “not at all” on the left to “extremely” on the right. Some VASs were bidirectional (±50%). Marked from “not at all” on the left (−50), to “normal” in the middle (0), to “extremely” on the right (+50).
# The criterion for significance was p<0.05.
# [3] = tested on: healthy subjects; experiment: Autonomic measures (blood pressure, heart rate, body temperature, pupil size); details: 25 mg psilocybin, healthy subjects
# Experimental: Study design: A double-blind, cross-over design was used with two conditions. […] 2) Pretreatment with placebo for 14 days with the last administration on the study day and administration of 25 mg psilocybin 2 hours later. Treatment order was random and counterbalanced. Between the 14 days pretreatment and the study day, there were at least 2 days washout until the next pretreatment phase began.
# Autonomic measures: Blood pressure, heart rate, and body temperature were recorded at baseline and repeatedly throughout the session. Blood pressure (systolic and diastolic) and heart rate were measured with an automatic oscillometric device. Body temperature was measured with an ear thermometer as previously described in detail (Hysek et al., 2010). Measures were taken before and at 0, 0.25, 0.5, 0.75, 1, 1.5, 2, 2.5, 3, 4, 5, 6 and 7 hours after psilocybin administration.
# Data analysis: Peak (Emax and/or Emin) or peak change from baseline (ΔEmax) values were determined for repeated measures. The values were then analyzed using paired T-tests using Statistica 12 software (StatSoft, Tulsa, OK, USA). The criterion for significance was p<0.05.
# [4] = tested on: healthy subjects; experiment: Adverse effects (list of complaints) and adverse events; assay type: in vivo, human
# Experimental: as §1
# Adverse effects (list of complaints): The list of complaints (LC) consists of 66 items offering a global score measuring physical and general discomfort (Zerssen, 1976). This scale yields a total adverse effects score and reliably measures physical and general discomfort. The LC list was administered 7 hours after administration of the drug with reference to complaints throughout the entire session.
# [5] = tested on: healthy subjects; experiment: QTc time; assay type: in vivo, human; details: 2.5 hours after psilocybin administration compared with 1 hour before
# Source text: Exclusion criteria: Chronic or acute medical condition, including a history of seizures. Current or previous major psychiatric disorder (e.g. psychotic disorders, mania/hypomania, anxiety disorders, and substance abuse). Psychotic disorder in first-degree relatives, not including psychotic disorders secondary to an apparent medical reason, e.g. brain injury, dementia, or lesions of the brain. Illicit substance use (with the exception of cannabis) more than 10 times or any time within the previous two months. History of an angle closure glaucoma. Pregnant or nursing women. Participation in another clinical trial (currently or within the last 30 days). […] A corrected QT time (QTc), calculated by Bazett's formula, of over 450 milliseconds in males and over 470 milliseconds in females. Tobacco smoking (>10 cigarettes/day). Consumption of alcoholic drinks (>10 drinks/week). Bodyweight <45 kg.
# [6] = after psilocybin, after escitalopram pretreatment
# [7] = after psilocybin, after placebo pretreatment
# [8] = after escitalopram pretreatment
structure (smiles),measurement,setting,value
CN(C)CCc1c[nH]c2cccc(O)c12 [psilocin],metabolism of psilocin,[1]; after 25 mg psilocybin,metabolized to approximately similar extents to inactive 4-HIAA and psilocin-glucuronide
same,half-life,"[1]; human, plasma, oral, non-glucuronidated (nonconjugated) psilocin after 25 mg psilocybin, read-out: elimination half-life (converted)",2 h
same,mean time to maximal plasma concentration,[1]; non-glucuronidated (nonconjugated) psilocin after 25 mg psilocybin,2 h
same,conjugation (glucuronidation) in plasma,[1]; samples analyzed with and without glucuronidase,A large proportion of psilocin underwent glucuronidation
"O=C(O)Cc1c[nH]c2cccc(O)c12 [4-HIAA, 4-hydroxyindole-3-acetic acid]",increase in metabolite concentrations over time,[1]; 4-HIAA compared to the glucuronide,faster
"CN(C)CCc1c[nH]c2cccc(OP(=O)(O)O)c12 [Psilocybin, psilocybin]",bad drug effects,[2]; healthy subjects,only moderate
same,anxiety,[2]; healthy subjects (FIG. 6B),only moderate
same,body temperature,[3],moderately increased
same,diastolic blood pressure,[3],moderately increased
same,heart rate,[3],changed only minimally
same,pupil size,[3],moderately increased
same,rate-pressure product,[3],moderately increased
same,systolic blood pressure,[3],moderately increased
same,type and amount of adverse events following psilocybin administration,[4]; after escitalopram and placebo pretreatment,comparable
same,adverse aftereffects: abdominal bloating,[4]; [6],one
same,adverse aftereffects: flash backs,[4]; [6],one
same,adverse aftereffects: headaches,[4]; [6],six
same,adverse aftereffects: lack of energy,[4]; [6],one
same,adverse aftereffects: nausea,[4]; [6],one
same,adverse aftereffects: flash backs,[4]; [7],one
same,adverse aftereffects: headaches,[4]; [7],six
same,adverse aftereffects: nausea,[4]; [7],one
same,adverse aftereffects: vasovagal syncope,[4]; [7],one
same,QTc times,[5],did not increase
CN(C)CCc1c[nH]c2cccc(O[C@@H]3O[C@H](C(=O)O)[C@@H](O)[C@H](O)[C@H]3O)c12 [psilocin glucuronide],elimination half-life,[1]; [8],5.2 h
same,mean time to peak concentrations,[1]; [8],3.74 h
same,elimination half-life,"[1]; after escitalopram pretreatment, listed as Glucuronidated psilocin",4.5 h
same,elimination half-life,[1]; after placebo pretreatment,4.5 h
same,mean time to peak concentrations,[1]; after placebo pretreatment,3.8 h
same,elimination half-life,"[1]; after placebo pretreatment, listed as Glucuronidated psilocin",4.1 h
same,mean time to peak concentrations,[1]; pretreatments not separated,3.2 to 3.4 h
